ChEMBL document CHEMBL5465560, “Selectivity Literature for EUbOPEN Chemogenomic Library” (2024)

What was measured:
[1] = biological target: Mitogen-activated protein kinase 10 (Homo sapiens, UniProt P53779); conditions: at 10 µM
[2] = biological target: T1, Dual specificity mitogen-activated protein kinase kinase 6 (Homo sapiens) (UniProt P52564); assay: Selectivity interaction (Ambit KINOMEscan and KiNATiv profiling in Jurkat cells) EUB0000090b MAP2K6; type: cell-based; conditions: at 1 µM
T1 sequence (whole entry): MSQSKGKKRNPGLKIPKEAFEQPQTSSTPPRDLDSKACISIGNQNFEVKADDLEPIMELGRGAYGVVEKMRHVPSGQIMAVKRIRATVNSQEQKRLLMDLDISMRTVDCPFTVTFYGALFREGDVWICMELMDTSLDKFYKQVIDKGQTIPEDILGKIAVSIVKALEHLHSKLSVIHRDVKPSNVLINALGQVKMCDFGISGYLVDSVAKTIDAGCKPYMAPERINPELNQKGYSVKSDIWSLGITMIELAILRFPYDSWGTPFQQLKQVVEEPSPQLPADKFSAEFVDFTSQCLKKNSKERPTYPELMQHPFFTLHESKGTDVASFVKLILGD

[3] = biological target: eIF-2-alpha kinase GCN2 (Homo sapiens) (UniProt Q9P2K8); assay: Selectivity interaction (ActivX KiNativ screen (kinase selectivity in THP-1 cell lysates)) EUB0000639a EIF2AK4; type: subcellular; conditions: lysate
[4] = biological target: T2, Mitogen-activated protein kinase kinase kinase 2 (Homo sapiens) (UniProt Q9Y2U5); assay: Selectivity interaction (ActivX KiNativ screen (kinase selectivity in THP-1 cell lysates)) EUB0000639a MAP3K2; type: subcellular; conditions: lysate
T2 sequence (whole entry): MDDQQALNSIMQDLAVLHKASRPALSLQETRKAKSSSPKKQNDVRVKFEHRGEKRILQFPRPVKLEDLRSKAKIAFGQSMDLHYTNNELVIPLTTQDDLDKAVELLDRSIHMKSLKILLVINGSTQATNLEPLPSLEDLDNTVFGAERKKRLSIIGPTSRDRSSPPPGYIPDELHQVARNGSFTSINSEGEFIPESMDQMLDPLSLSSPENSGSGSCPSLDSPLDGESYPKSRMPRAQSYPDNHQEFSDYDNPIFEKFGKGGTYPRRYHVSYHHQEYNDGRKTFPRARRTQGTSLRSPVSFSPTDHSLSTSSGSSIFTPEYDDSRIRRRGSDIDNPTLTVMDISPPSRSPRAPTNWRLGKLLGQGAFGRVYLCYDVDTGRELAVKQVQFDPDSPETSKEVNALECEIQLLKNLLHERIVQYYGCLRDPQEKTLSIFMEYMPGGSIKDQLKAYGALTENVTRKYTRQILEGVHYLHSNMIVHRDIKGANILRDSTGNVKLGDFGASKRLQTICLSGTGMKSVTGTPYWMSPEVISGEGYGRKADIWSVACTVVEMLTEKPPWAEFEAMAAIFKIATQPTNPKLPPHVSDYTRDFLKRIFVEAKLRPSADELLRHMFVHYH

[5] = biological target: Bromodomain-containing protein 3 (Homo sapiens) (UniProt Q15059); assay: Selectivity interaction (Bromodomain panel (DSF asssay)) EUB0000270b BRD3
[6] = biological target: Serine/threonine-protein kinase 38-like (Homo sapiens) (UniProt Q9Y2H1); assay: Selectivity interaction (LanthaScreen Eu Kinase Binding Assay) EUB0001632a STK38L; conditions: at 10 µM
[7] = biological target: T3, cGMP-dependent protein kinase 1 (Homo sapiens) (UniProt Q13976); assay: Selectivity interaction (KinomeScan (DiscoverX)) EUB0000695a PRKG1; conditions: at 100 nM
T3 sequence (whole entry): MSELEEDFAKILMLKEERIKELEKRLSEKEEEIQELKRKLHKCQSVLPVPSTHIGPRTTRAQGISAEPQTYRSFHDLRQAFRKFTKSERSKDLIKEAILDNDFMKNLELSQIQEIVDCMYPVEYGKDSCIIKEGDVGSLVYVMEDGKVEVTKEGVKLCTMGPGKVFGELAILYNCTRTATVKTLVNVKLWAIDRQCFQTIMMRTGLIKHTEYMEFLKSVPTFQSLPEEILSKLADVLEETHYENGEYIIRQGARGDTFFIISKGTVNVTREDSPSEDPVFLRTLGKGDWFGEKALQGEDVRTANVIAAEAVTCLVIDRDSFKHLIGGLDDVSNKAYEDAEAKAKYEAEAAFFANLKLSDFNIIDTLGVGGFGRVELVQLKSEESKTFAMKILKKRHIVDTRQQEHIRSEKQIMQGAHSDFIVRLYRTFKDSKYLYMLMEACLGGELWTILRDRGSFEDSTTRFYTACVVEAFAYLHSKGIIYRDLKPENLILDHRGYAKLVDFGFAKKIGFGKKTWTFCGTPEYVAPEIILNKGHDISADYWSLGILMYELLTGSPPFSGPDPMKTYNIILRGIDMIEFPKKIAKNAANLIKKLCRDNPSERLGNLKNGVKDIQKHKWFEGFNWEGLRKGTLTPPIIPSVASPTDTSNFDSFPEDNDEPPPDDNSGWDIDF

[8] = biological target: Tyrosine-protein kinase Lyn (Homo sapiens, UniProt P07948); assay: Selectivity interaction (KinomeScan (DiscoverX)) EUB0000595a LYN; conditions: at 10 µM
[9] = biological target: Cyclin-dependent kinase 11B (Homo sapiens) (UniProt P21127); assay: Selectivity interaction (KinomeScan (DiscoverX)) EUB0000045b CDK11B
[10] = biological target: Serine/threonine-protein kinase PLK2 (Homo sapiens, UniProt Q9NYY3); assay: Selectivity interaction (KinomeScan (DiscoverX)) EUB0001619a PLK2; conditions: at 1 µM
[11] = biological target: Protein arginine N-methyltransferase 5 (Homo sapiens, UniProt O14744); assay: Selectivity interaction (Methyltransferase screen (Scintillation proximity assays)) EUB0000255b PRMT5
[12] = biological target: Insulin-like growth factor 1 receptor (Homo sapiens, UniProt P08069); assay: Selectivity interaction (KinomeScan (DiscoverX)) EUB0000666a IGF1R; conditions: at 10 µM

Sequence of eIF-2-alpha kinase GCN2 (Homo sapiens) (Q9P2K8 whole entry): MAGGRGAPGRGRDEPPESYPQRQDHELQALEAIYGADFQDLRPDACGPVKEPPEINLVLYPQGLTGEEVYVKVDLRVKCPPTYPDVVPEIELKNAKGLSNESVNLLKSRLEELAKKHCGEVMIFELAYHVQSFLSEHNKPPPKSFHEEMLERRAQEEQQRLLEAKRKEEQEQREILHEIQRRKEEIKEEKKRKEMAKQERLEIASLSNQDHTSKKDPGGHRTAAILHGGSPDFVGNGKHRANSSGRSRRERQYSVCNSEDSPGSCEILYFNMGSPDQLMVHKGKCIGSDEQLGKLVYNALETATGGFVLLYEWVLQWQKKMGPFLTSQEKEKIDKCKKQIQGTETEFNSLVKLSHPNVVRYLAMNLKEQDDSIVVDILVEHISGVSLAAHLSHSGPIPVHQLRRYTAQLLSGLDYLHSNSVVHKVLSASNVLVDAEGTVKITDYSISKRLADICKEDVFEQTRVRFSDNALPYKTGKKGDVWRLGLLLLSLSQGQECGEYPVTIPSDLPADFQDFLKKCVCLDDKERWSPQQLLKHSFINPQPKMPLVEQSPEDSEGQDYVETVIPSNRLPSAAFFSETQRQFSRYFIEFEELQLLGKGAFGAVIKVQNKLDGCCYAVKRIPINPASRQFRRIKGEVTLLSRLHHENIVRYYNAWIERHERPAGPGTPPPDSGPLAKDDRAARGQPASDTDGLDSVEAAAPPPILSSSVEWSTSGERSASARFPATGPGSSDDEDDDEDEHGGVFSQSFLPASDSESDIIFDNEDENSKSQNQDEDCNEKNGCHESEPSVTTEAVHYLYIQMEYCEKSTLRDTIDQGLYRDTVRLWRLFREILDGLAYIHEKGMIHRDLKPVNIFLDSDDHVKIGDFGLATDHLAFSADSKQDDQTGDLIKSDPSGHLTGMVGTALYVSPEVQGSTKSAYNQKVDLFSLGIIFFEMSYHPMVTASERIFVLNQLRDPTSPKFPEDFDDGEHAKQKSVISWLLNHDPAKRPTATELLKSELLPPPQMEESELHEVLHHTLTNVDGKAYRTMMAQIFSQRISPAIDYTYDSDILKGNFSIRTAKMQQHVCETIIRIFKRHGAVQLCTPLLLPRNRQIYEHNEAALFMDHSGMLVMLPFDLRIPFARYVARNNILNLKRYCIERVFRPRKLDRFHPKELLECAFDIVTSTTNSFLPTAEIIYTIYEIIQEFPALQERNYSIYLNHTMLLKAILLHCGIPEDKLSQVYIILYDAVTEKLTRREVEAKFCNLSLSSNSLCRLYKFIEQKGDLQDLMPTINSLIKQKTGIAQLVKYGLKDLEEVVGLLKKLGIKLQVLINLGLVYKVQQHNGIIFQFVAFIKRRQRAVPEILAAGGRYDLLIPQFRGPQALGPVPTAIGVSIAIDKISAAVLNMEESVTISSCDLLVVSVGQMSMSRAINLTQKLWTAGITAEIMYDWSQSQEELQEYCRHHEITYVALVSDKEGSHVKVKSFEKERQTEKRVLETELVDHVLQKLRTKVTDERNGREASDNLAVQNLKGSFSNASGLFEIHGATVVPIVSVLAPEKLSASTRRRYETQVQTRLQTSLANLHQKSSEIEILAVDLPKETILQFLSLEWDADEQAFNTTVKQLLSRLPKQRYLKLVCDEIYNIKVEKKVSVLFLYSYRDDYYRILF
Sequence of Cyclin-dependent kinase 11B (Homo sapiens) (P21127 whole entry): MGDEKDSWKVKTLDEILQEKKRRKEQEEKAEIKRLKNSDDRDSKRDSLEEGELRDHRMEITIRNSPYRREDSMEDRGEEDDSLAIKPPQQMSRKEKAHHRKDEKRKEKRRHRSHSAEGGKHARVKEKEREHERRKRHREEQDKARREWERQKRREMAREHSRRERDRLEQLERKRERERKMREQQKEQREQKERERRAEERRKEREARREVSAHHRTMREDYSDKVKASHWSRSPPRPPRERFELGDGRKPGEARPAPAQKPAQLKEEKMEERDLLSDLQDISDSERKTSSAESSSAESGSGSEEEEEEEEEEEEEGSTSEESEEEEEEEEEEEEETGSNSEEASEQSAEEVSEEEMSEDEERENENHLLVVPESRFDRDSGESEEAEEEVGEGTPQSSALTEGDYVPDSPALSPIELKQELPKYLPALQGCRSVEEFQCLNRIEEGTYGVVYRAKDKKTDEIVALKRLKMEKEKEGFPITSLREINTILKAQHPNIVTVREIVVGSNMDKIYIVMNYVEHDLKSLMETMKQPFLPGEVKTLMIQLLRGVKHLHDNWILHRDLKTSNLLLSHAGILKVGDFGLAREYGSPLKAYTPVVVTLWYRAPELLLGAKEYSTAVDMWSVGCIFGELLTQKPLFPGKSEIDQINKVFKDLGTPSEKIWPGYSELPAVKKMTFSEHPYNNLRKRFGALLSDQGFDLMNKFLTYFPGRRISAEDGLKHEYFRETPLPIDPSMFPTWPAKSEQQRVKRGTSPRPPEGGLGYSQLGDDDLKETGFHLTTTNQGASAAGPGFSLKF
Sequence of Protein arginine N-methyltransferase 5 (O14744 whole entry): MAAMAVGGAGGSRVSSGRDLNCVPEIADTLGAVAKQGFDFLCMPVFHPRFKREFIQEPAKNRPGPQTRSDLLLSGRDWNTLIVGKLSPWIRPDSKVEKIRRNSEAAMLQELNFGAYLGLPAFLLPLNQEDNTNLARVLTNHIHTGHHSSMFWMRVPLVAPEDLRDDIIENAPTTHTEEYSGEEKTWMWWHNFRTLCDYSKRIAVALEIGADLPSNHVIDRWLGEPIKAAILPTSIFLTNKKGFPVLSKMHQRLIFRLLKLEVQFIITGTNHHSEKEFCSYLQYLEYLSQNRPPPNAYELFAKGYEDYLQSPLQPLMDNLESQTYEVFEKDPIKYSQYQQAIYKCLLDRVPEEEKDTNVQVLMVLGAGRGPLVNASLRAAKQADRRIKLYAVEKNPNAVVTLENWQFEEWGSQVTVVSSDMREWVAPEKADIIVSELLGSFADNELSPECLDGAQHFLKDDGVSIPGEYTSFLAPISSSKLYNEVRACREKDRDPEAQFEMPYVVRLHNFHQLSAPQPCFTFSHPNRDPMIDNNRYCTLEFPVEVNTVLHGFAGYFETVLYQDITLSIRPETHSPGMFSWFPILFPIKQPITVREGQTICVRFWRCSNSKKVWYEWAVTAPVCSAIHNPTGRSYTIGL
Sequence of Serine/threonine-protein kinase 38-like (Homo sapiens) (Q9Y2H1 2-464 limits assumed): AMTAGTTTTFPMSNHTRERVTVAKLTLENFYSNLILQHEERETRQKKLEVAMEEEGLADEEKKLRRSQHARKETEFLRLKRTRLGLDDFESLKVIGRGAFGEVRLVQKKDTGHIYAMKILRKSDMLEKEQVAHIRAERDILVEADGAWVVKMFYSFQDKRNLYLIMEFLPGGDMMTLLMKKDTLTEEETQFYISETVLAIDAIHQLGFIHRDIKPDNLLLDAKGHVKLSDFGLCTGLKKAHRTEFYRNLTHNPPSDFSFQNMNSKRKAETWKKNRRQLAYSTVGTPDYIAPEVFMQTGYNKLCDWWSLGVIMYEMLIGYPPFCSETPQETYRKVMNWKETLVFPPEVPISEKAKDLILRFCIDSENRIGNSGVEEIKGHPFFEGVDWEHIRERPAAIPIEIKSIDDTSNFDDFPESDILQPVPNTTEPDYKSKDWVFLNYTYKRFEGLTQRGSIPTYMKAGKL
Sequence of Tyrosine-protein kinase Lyn (P07948 2-512 limits assumed): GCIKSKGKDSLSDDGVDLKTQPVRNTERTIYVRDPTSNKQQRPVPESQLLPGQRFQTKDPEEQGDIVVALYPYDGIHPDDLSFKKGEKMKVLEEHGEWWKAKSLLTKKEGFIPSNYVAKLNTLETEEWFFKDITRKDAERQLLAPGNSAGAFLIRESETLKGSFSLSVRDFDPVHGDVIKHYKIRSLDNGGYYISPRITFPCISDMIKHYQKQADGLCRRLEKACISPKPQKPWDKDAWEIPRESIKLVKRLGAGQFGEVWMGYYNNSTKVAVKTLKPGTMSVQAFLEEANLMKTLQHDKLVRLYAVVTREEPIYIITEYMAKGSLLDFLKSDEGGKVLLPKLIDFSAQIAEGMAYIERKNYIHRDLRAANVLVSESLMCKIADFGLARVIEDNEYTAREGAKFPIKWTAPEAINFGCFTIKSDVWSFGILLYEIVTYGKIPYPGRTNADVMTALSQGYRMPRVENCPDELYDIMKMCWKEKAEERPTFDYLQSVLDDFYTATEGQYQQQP
Sequence of Bromodomain-containing protein 3 (Homo sapiens) (Q15059 2-726 limits assumed): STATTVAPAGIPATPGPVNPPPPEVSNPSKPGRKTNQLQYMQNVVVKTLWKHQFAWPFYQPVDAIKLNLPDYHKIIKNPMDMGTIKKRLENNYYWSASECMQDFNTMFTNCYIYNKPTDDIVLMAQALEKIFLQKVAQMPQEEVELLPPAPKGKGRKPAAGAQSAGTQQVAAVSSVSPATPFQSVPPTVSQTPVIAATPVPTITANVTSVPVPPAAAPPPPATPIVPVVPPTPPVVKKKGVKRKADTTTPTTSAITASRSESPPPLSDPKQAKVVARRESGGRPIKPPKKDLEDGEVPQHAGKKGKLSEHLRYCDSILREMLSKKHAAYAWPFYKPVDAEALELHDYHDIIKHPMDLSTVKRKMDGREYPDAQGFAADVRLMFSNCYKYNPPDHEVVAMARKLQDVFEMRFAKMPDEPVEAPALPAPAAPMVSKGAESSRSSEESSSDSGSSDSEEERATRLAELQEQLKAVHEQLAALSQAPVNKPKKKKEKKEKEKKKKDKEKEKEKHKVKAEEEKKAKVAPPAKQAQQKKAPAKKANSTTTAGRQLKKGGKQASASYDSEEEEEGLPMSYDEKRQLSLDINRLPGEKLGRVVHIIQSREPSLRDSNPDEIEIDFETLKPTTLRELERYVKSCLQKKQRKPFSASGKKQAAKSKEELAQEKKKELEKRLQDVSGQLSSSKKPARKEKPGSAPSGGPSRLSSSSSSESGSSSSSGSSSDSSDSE

Cc1cc([C@@H](C)Nc2ccccc2C(=O)O)c2nc(N3CCOCC3)cc(=O)n2c1 [AZD-6482] showed a % of control [1] of 82%.

CN(C)C/C=C/C(=O)Nc1ccc(C(=O)N2CCCC(Nc3ncc(Cl)c(-c4c[nH]c5ccccc45)n3)C2)cc1 (configuration not stated) was tested, and the % of control [2] was 78%.

CC[C@@H]1[C@H](F)C(=O)N[C@@H]1COc1nccc2cc(C(N)=O)c(OC)cc12 [ZIMLOVISERTIB] showed a % of inhibition ([3]; at 0.01 µM) of -4.6%, a % of inhibition ([3]; at 0.04 µM) of -11.3% and a % of inhibition ([3]; at 0.2 µM) of -14.4%. For the same molecule, the % of inhibition ([3]; at 1 µM) was 13.9%, the % of inhibition ([3]; at 5 µM) was 12.4% and the % of inhibition ([4]; at 0.01 µM) was -0.4%. The % of inhibition ([4]; at 0.04 µM) was -0.5%, the % of inhibition ([4]; at 0.2 µM) was -5.2% and the % of inhibition ([4]; at 1 µM) was 3%. It also gave a % of inhibition ([4]; at 5 µM) of 6.3%.

Work on Cc1cc(CN)cc(C)c1-c1ncn(C)c1-c1cncn1C yielded a dTM [5] of -3.97 K.

For Cn1cc(-n2cnc3c(NCc4nc5cc(Cl)c(Cl)cc5[nH]4)nc(N4CCOCC4)nc32)cn1, the % of inhibition [6] was -54.8%.

Cc1cc(F)c(C(=O)Nc2cccc(-c3nncn3C(C)C)n2)cc1-n1cnc(C2CC2)c1 was tested, and the % of control [7] was 100%.

COCC(=O)NC/C=C/c1ccc2ncnc(Nc3ccc(Oc4ccc(C)nc4)c(C)c3)c2c1 [CP-724714] gave a % of control [8] of 92%.

C=CC(=O)Nc1cc(-n2c(=O)ccc3cnc4ccc(-c5ccc(NS(C)(=O)=O)cc5)cc4c32)ccc1C was tested, and the % of control ([9]; at 1 µM) was 100% and the % of control ([9]; at 10 µM) was 99%.

With N#Cc1cccc(-c2c[nH]c3ncnc(N4CCOCC4)c23)c1 the % of control [10] was 100%.

Work on COCCN1CCC(c2cc(CN(C)C(=O)c3cccc(Oc4ccccc4)c3)ccn2)CC1 yielded a % activity ([11]; at 1 µM) of over 95% and a % activity ([11]; at 10 µM) of over 90%.

O=C(NOC[C@H](O)CO)c1ccc(F)c(F)c1Nc1ccc(I)cc1F showed a % of control [12] of 87%.
